According to patent US9040525B2, “Cyclic amide derivative” (MOCHIDA PHARMACEUTICAL CO., LTD., priority 2010, dated 2015):
Where a name gives a salt, the structure may show the parent alone.

These compounds were tested against T1, GPR40 of human origin (Homo sapiens, UniProt O14842) (assay: Agonist action on GPR40 of human origin (Ca2+ fluorescence, CHO cell strain stably expressing GPR40)). Conditions: fluctuation of Ca2+ concentration.
T1 construct: expressed in transfected cells
Format: cell-based
Method: A CHO cell strain stably expressing GPR40 of human origin was used to determine the agonist action of a title compound. This cell strain was seeded in a clear bottom 96 well plate at 2×10^4 cells/100 μL/well. The cell strain was cultured in a CO2 incubator overnight using a Ham's F-12 medium containing a 10% fetal bovine serum, 100 U/mL penicillin, 0.1 mg/mL streptomycin, and 400 μg/mL. Geneticin. Calcium 4 Assay Kit (Molecular Devices) was used as a fluorescent calcium indicator. One mL of 77 mg/mL probenecid (Invitrogen) was added to 100 mL of a calcium indicator solution to prepare a solution (loading solution) mixed with a 20 mM HEPES-containing Hanks' balanced salt solution (HBSS) in equal proportions. To the cells from which the culture solution was removed, 200 μL of the loading solution was added, and the cells were cultured in a CO2 incubator for 1 hour. The title compound was diluted with a 20 mM HEPES-containing HBSS and was added to the cells by 50 μL, and the fluctuation of the Ca^2+concentration was measured by an intracellular ion analyzer. The EC50 value of the title compound was calculated using the dose-response curve of fluorescence intensity variation.

T1 sequence (O14842 whole entry): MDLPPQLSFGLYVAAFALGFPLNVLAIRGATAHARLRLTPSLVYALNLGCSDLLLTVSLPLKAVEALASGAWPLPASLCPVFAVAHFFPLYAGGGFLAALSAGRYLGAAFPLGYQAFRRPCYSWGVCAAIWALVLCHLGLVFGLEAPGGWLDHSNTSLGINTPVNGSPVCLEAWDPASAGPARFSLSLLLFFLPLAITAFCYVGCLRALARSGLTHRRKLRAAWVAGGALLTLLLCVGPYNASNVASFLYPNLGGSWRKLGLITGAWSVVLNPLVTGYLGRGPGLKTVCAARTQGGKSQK

Compound	EC50 [µM]
Cc1nc(OCCC(C)(C)O)ccc1-c1cccc2c1CC[C@H]2Oc1ccc(C2CC(=O)N[S+]2[O-])cc1 (single isomer, unassigned) [23(A)-b]	0.3 to 3
Cc1cc(OCCC(C)(C)O)cc(C)c1-c1cccc2c1CC[C@H]2Oc1ccc(C2CC(=O)NS(=O)(=O)C2)cc1 (stereo partly drawn) [Example 34, 5-(4-(((R)-4-(4-(3-hydroxy-3-methylbutoxy)-2,6-dimethylphenyl)-2,3-dihydro-1H-inden-1-yl)oxy)phenyl)-1,1-dioxo-1,2-thiazinan-3-one]	< 0.3
Cc1cccc(C)c1-c1cccc(COc2ccc(C3CC(=O)NS(=O)(=O)N3)cc2)c1 (racemic) [Example 21, 5-[4-[[3-(2,6-dimethylphenyl)phenyl]methoxy]phenyl]-1,1-dioxo-1,2,6-thiadiazinan-3-one]	< 0.3
Cc1cc(OCC[C@@H](C)O)cc(C)c1-c1cccc(COc2ccc(C3CC(=O)N[S+]3[O-])cc2)c1 (mixture of isomers) [Example 12, 5-[4-[[3-[4-[(3R)-3-hydroxybutoxy]-2,6-dimethylphenyl]phenyl]methoxy]phenyl]-1-oxo-1,2-thiazolidin-3-one]	< 0.3
Cc1cccc(C)c1-c1cccc(COc2ccc(N3CC(=O)NS3(=O)=O)c(Cl)c2)c1 [Example 16, 5-[2-chloro-4-[[3-(2,6-dimethylphenyl)phenyl]methoxy]phenyl]-1,1-dioxo-1,2,5-thiadiazolidin-3-one]	< 0.3
N#Cc1ccc(Oc2cccc3c2CC[C@H]3Oc2ccc(C3CC(=O)NS(=O)(=O)N3)cc2)cc1 (stereo partly drawn) [Example 26, 4-(((1R)-1-(4-(1,1-dioxo-1,2,6-thiadiazinan-3-on-5-yl)phenoxy)-2,3-dihydro-1H-inden-4-yl)oxy)benzonitrile]	< 0.3
Cc1cc(OCCC(C)(C)O)nc(C)c1-c1cccc(COc2ccc(C3CC(=O)NS3(=O)=O)cc2)c1 (racemic) [Example 20, 5-[4-[[3-[6-(3-hydroxy-3-methylbutoxy)-2,4-dimethylpyridin-3-yl]phenyl]methoxy]phenyl]-1,1-dioxo-1,2-thiazolidin-3-one]	0.3 to 3
Cc1cc(OCCCS(C)(=O)=O)cc(C)c1-c1cccc(COc2ccc(N3CC(=O)NS3(=O)=O)cc2)c1 [Example 15, 5-[4-[[3-[2,6-dimethyl-4-(3-methylsulfonylpropoxy)phenyl]phenyl]methoxy]phenyl]-1,1-dioxo-1,2,5-thiadiazolidin-3-one]	0.3 to 3
Cc1cc(OCCCO)cc(C)c1-c1cccc(COc2ccc(C3CC(=O)N[S+]3[O-])cc2)c1 (centres unmarked) [Example 8, 5-[4-[[3-[4-(3-hydroxypropoxy)-2,6-dimethylphenyl]phenyl]methoxy]phenyl]-1-oxo-1,2-thiazolidin-3-one]	< 0.3
Cc1cc(OC[C@H](O)CO)cc(C)c1-c1cccc(COc2ccc(C3CC(=O)N[S+]3[O-])cc2)c1 (stereo partly drawn) [Example 9, 5-[4-[[3-[4-[(2R)-2,3-dihydroxypropoxy]-2,6-dimethylphenyl]phenyl]methoxy]phenyl]-1-oxo-1,2-thiazolidin-3-one]	< 0.3
Cc1cc(-c2cccc(COc3ccc(C4CC(=O)N[S+]4[O-])cc3)c2)c(C)cc1OCCC(C)(C)O (centres unmarked) [Example 7, 5-[4-[[3-[4-(3-hydroxy-3-methylbutoxy)-2,5-dimethylphenyl]phenyl]methoxy]phenyl]-1-oxo-1,2-thiazolidin-3-one]	< 0.3
Cc1cccc(C)c1-c1cccc(COc2ccc(N3C(C)C(=O)NS3(=O)=O)cc2)c1 (centres unmarked) [Example 18, 5-[4-[[3-(2,6-dimethylphenyl)phenyl]methoxy]phenyl]-4-methyl-1,1-dioxo-1,2,5-thiadiazolidin-3-one]	0.3 to 3
Cc1cc(OCCC(C)(C)O)cc(C)c1-c1cccc2c1CC[C@H]2Oc1ccc(C2CC(=O)N[S+]2[O-])cc1 (single isomer, unassigned) [24(A)-a]	< 0.3
Cc1cccc(C)c1-c1cccc(COc2ccc(N3CC(=O)NS3(=O)=O)cc2)c1 [Example 14, 5-[4-[[3-(2,6-dimethylphenyl)phenyl]methoxy]phenyl]-1,1-dioxo-1,2,5-thiadiazolidin-3-one]	< 0.3
O=C1CC(c2ccc(OC3COc4c3cccc4C(F)(F)F)cc2)[S+]([O-])N1 (centres unmarked) [Example 28]	0.3 to 3
Cc1cc(OCCC(C)(C)O)nc(C)c1-c1cccc(COc2ccc(C3CC(=O)NS(=O)(=O)C3)cc2)c1 (centres unmarked) [Example 35, 5-[4-[[3-[6-(3-hydroxy-3-methylbutoxy)-2,4-dimethylpyridin-3-yl]phenyl]methoxy]phenyl]-1,1-dioxo-1,2-thiazinan-3-one]	< 0.3

Compound	EC50 [µM]
Cc1cc(OCCCS(C)(=O)=O)cc(C)c1-c1cccc(COc2ccc(C3CC(=O)NS(=O)(=O)C3)cc2)c1 (centres unmarked) [Example 31, 5-[4-[[3-[2,6-dimethyl 4-(3-methylsulfonylpropoxy)phenyl]phenyl]methoxy]phenyl]-1,1-dioxo-1,2-thiazinan-3-one]	< 0.3
Cc1cc(OCc2cccc(-c3c(C)cccc3C)c2)ccc1N1CC(=O)NS1(=O)=O [Example 17, 5-[4-[[3-(2,6-dimethylphenyl)phenyl]methoxy]-2-methylphenyl]-1,1-dioxo-1,2,5-thiadiazolidin-3-one]	< 0.3
Cc1cc(OCCCS(C)(=O)=O)cc(C)c1-c1cccc(COc2ccc(C3CC(=O)N[S+]3[O-])cc2)c1 (centres unmarked) [Example 13, 5-[4-[[3-[2,6-dimethyl 4-(3-methylsulfonylpropoxy)phenyl]phenyl]methoxy]phenyl]-1-oxo-1,2-thiazolidin-3-one]	< 0.3
Cc1cc(OCCCS(C)(=O)=O)cc(C)c1-c1cccc(COc2ccc(C3CC(=O)NS3(=O)=O)cc2)c1 (racemic) [Example 19, 5-[4-[[3-[2,6-dimethyl 4-(3-methylsulfonylpropoxy)phenyl]phenyl]methoxy]phenyl]-1,1-dioxo-1,2-thiazolidin-3-one]	< 0.3
Cc1cc(OCCCS(C)(=O)=O)nc(C)c1-c1cccc(COc2ccc(C3CC(=O)N[S+]3[O-])cc2)c1 (centres unmarked) [Example 5, 5-[4-[[3-[2,4-dimethyl-6-(3-methylsulfonylpropoxy)pyridin-3-yl]phenyl]methoxy]phenyl]-1-oxo-1,2-thiazolidin-3-one]	< 0.3
Cc1cc(OCCCN)cc(C)c1-c1cccc(COc2ccc(C3CC(=O)N[S+]3[O-])cc2)c1 (centres unmarked) [Example 11, 5-[4-[[3-[4-(3-aminopropoxy)-2,6-dimethylphenyl]phenyl]methoxy]phenyl]-1-oxo-1,2-thiazolidin-3-one trifluoroacetic acid salt]	< 0.3
Cc1cc(OCCC(C)(C)O)c(F)c(C)c1-c1cccc(COc2ccc(C3CC(=O)N[S+]3[O-])cc2)c1 (centres unmarked) [Example 3, 5-[4-[[3-[3-fluoro-4-(3-hydroxy-3-methylbutoxy)-2,6-dimethylphenyl]phenyl]methoxy]phenyl]-1-oxo-1,2-thiazolidin-3-one]	< 0.3
Cc1cc(OCCC(C)(C)O)nc(C)c1-c1cccc(COc2ccc(C3CC(=O)N[S+]3[O-])cc2)c1 (centres unmarked) [Example 6, 5-[4-[[3-[6-(3-hydroxy-3-methylbutoxy)-2,4-dimethylpyridin-3-yl]phenyl]methoxy]phenyl]-1-oxo-1,2-thiazolidin-3-one]	< 0.3
O=C1CC(c2ccc(O[C@@H]3CCc4c(Br)cccc43)cc2)[S+]([O-])N1 (stereo partly drawn) [Example 29, 5-(4-(((R)-4-bromo-2,3-dihydro-1H-inden-1-yl)oxy)phenyl)-1-oxo-1,2-thiazolidin-3-one]	< 0.3
CCOCCOc1cc(C)c(-c2cccc(COc3ccc(C4CC(=O)N[S+]4[O-])cc3)c2)c(C)c1 (mixture of isomers) [Example 1, 5-[4-[[3-[4-(2-ethoxyethoxy)-2,6-dimethylphenyl]phenyl]methoxy]phenyl]-1-oxo-1,2-thi azolidin-3-one]	< 0.3
Cc1cccc(C)c1-c1cccc(COc2ccc(C3CC(=O)NS(=O)(=O)C3)cc2)c1 (racemic) [Example 22, 5-[4-[[3-(2,6-dimethylphenyl)phenyl]methoxy]phenyl]-1,1-dioxo-1,2-thiazinan-3-one]	< 0.3
O=C1CC(c2ccc(O[C@@H]3CCc4c(Oc5ccccc5)cccc43)cc2)[S+]([O-])N1 (stereo partly drawn) [Example 27, 5-(4-(((R)-4-phenoxy-2,3-dihydro-1H-inden-1-yl)oxy)phenyl)-1-oxo-1,2-thiazolidin-3-one]	< 0.3
CCOCCOc1cc(C)c(-c2cccc(COc3ccc(C4CC(=O)N[S+]4[O-])cc3)c2)c(C)c1F (centres unmarked) [Example 2, 5-[4-[[3-[4-(2-ethoxyethoxy)-3-fluoro-2,6-dimethylphenyl]phenyl]methoxy]phenyl]-1-oxo-1,2-thiazolidin-3-one]	< 0.3
Cc1cc(OCCC(C)(C)O)cc(C)c1-c1cccc(COc2ccc(C3CC(=O)N[S+]3[O-])cc2)c1 (centres unmarked) [Example 4, 5-[4-[[3-[4-(3-hydroxy-3-methylbutoxy)-2,6-dimethylphenyl]phenyl]methoxy]phenyl]-1-oxo-1,2-thiazolidin-3-one]	< 0.3
Cc1cc(OCC(CO)CO)cc(C)c1-c1cccc(COc2ccc(C3CC(=O)N[S+]3[O-])cc2)c1 (centres unmarked) [Example 10, 5-[4-[[3-[4-[3-hydroxy-2-(hydroxymethyl)propoxy]-2,6-dimethylphenyl]phenyl]methoxy]phenyl]-1-oxo-1,2-thiazolidin-3-one]	< 0.3
N#Cc1ccc(Oc2cccc3c2CC[C@H]3Oc2ccc(C3CC(=O)NS(=O)(=O)C3)cc2)cc1 (stereo partly drawn) [Example 32, 4-(((1R)-1-(4-(1,1-dioxo-3-oxo-1,2-thiazinan-5-yl)phenoxy)-2,3-dihydro-1H-inden-4-yl)oxy)benzonitrile]	< 0.3
